According to article PMC7537397, “Deciphering and predicting CD4^+ T cell immunodominance of influenza virus hemagglutinin” (The Journal of Experimental Medicine, 2020):

Key:
[1] = system: H1-HA–reactive T cell clones from CD4^+ naive T cell compartment; assay type: cell-based, human
HLA-DR, HLA-DQ, HLA-DP = test: MHC-II restriction of T cell clones with blocking antibodies; assay type: cell-based, human
[2] = system: H1-HA–specific memory CD4^+ T cell clones, donor HD1; test: Functional avidity of memory T cell clones with anti-head or anti-stem EBV-B cell clones as APCs; assay type: cell-based, human; conditions: HLA-DR–restricted clones specific for the peptide
[3] = system: H1-HA–reactive T cell clones from CD4^+ memory (Tcm, Tem, or cTfh) compartment, donor HD1; assay type: cell-based, human
HLA-DRB1*08:01 = HLA-DRB1*08:01 (Homo sapiens, UniProt P01903+P01911, A100R/A103L/A169T/D86S/F76Y/H45Y/I96F/K41T/L162R/M171V/P40S/Q125H/Q178H/Q39Y/Q99D/R218S/R42G/S66Y/V115G/W38E); assay type: binding; conditions: pH 7
MHC-II molecules = test: MS-based MHC-II peptidomics, H1-HA–pulsed anti-head and anti-stem EBV-B cell clones of donor HD1; set-up: species or system human; conditions: 401–420: anti-stem clone; 416–430 and 386–400: both anti-head and anti-stem clones; union of n = 3
[4] = system: H1-HA–specific memory CD4^+ T cell clones, donor HD1; assay type: cell-based, human; conditions: for functional avidity for peptide, memory T cell clone specific for the peptide: donor HD1 memory clones M1 (411–430), M2 (396–410), M3 (526–540), M4 (121–140), M5 (186–200), M6 (446–460), autologous monocytes; for functional avidity for peptide, memory T cell clone specific for the peptide / functional avidity for H1-HA protein, memory T cell clone specific for the peptide: from EC50, day 3; for functional avidity for H1-HA protein, memory T cell clone specific for the peptide: donor HD1 memory clones M1, M4, M5, M6; for fold lower functional avidity for H1-HA protein, memory T cell clone specific for the peptide: clones M2 (396–410) and M3 (526–540), had avidity for peptide comparable to clone M1
[5] = system: H1-HA–specific naive CD4^+ T cell clones, donor HD1; assay type: cell-based, human; conditions: for fold lower avidity for protein, naive T cell clone specific for the peptide: clones N2 (521–540) and N3 (536–555); for functional avidity for peptide, naive T cell clone specific for the peptide: donor HD1 naive clones N1 (411–430), N2 (521–540), N3 (536–555), autologous monocytes, from EC50, day 3
[6] = system: naive and memory CD4^+ T cells; test: T cell library screening and epitope mapping, naive and memory CD4^+ T cells; assay type: cell-based, human; conditions: memory library

AGAKSFYKNLIWLVKKGNSY
N sister clones (epitope-specific naive clones per TCR Vβ clonotype) [1]: 1

EDKHNGKLCKLRGVAPLHLG
N sister clones (epitope-specific naive clones per TCR Vβ clonotype) [1]: 1

EGRMNYYWTLVEPGDKITFE
MHC-II restriction of T cell clones specific for the peptide (HLA-DR, HLA-DQ, HLA-DP): HLA-DR restricted | activation, proliferation and functional avidity with anti-stem compared with anti-head B cells as APCs [2]: much lower activation and proliferation | reduction of functional avidity with anti-stem compared with anti-head B cells as APCs [2]: 10 fold

EKMNTQFTAVGKEFNHLEKR
number of different TCR Vβ clonotypes specific for the peptide ([3]; 88 distinct clonotypes in total): 16 clonotypes | number of sequenced T cell clones specific for the peptide ([3]; 274 clones sequenced): 62 clones | MHC-II restriction of T cell clones specific for the peptide (HLA-DR, HLA-DQ, HLA-DP): HLA-DR restricted | binding affinity to HLA-DRB1*08:01 relative to subdominant peptides (HLA-DRB1*08:01): comparable to that of subdominant peptides | activation, proliferation and functional avidity with anti-stem compared with anti-head B cells as APCs [2]: much lower activation and proliferation | reduction of functional avidity with anti-stem compared with anti-head B cells as APCs [2]: 10 fold | detection of H1-HA–derived peptides of the region by MHC-II immunopeptidomics, HD1 B cell clones (MHC-II molecules): did not detect any

GFLDIWTYNAELLVL
N sister clones (epitope-specific naive clones per TCR Vβ clonotype) [1]: 1

GFLDIWTYNAELLVLLENER
N sister clones (epitope-specific naive clones per TCR Vβ clonotype) [1]: 1

GKLCKLRGVAPLHLG
N sister clones (epitope-specific naive clones per TCR Vβ clonotype) [1]: 1

HLEKRIENLNKKVDD
MHC-II restriction of T cell clones specific for the peptide (HLA-DR, HLA-DQ, HLA-DP): HLA-DR–restricted | activation, proliferation and functional avidity with anti-stem compared with anti-head B cells as APCs [2]: comparable functional avidity | detection of H1-HA–derived peptides of the region by MHC-II immunopeptidomics, HD1 B cell clones (MHC-II molecules): detected by MHC-II immunopeptidomics on both anti-head and anti-stem B cell clones

KGKEVLVLWGIHHPS
MHC-II restriction of T cell clones specific for the peptide (HLA-DR, HLA-DQ, HLA-DP): HLA-DQ | functional avidity for peptide, memory T cell clone specific for the peptide [4]: functional avidity lower than the median of the distribution | functional avidity for H1-HA protein, memory T cell clone specific for the peptide [4]: functional avidity lower than the median of the distribution

KLESTRIYQILAIYSTVASS
fold lower avidity for protein, naive T cell clone specific for the peptide [5]: 100 fold | functional avidity for peptide, naive T cell clone specific for the peptide [5]: high avidity

LENERTLDYHDSNVK
MHC-II restriction of T cell clones specific for the peptide (HLA-DR, HLA-DQ, HLA-DP): HLA-DQ | functional avidity for peptide, memory T cell clone specific for the peptide [4]: functional avidity lower than the median of the distribution | functional avidity for H1-HA protein, memory T cell clone specific for the peptide [4]: functional avidity lower than the median of the distribution

QNAIDEITNKVNSVI
MHC-II restriction of T cell clones specific for the peptide (HLA-DR, HLA-DQ, HLA-DP): HLA-DR–restricted | activation, proliferation and functional avidity with anti-stem compared with anti-head B cells as APCs [2]: comparable functional avidity | detection of H1-HA–derived peptides of the region by MHC-II immunopeptidomics, HD1 B cell clones (MHC-II molecules): detected by MHC-II immunopeptidomics on both anti-head and anti-stem B cell clones

RIYQILAIYSTVASS
fold lower functional avidity for H1-HA protein, memory T cell clone specific for the peptide [4]: 1,000 fold | functional avidity for peptide, memory T cell clone specific for the peptide [4]: high functional avidity

SRYSKKFKPEIAIRPKVRDQ
N sister clones (epitope-specific naive clones per TCR Vβ clonotype) [1]: 1

TVASSLVLVVSLGAISFWMC
N sister clones (epitope-specific naive clones per TCR Vβ clonotype) [1]: 1 | fold lower avidity for protein, naive T cell clone specific for the peptide [5]: 100 fold | functional avidity for peptide, naive T cell clone specific for the peptide [5]: high avidity

VNSVIEKMNTQFTAV
percentage of immunodominant T cell clones ([6]; donor HD4): 31.1% | fold lower functional avidity for H1-HA protein, memory T cell clone specific for the peptide [4]: 1,000 fold | functional avidity for peptide, memory T cell clone specific for the peptide [4]: high functional avidity

VVPRYAFAMERNAGSGIIIS
percentage of immunodominant T cell clones ([6]; donor HD3): 24.5%
